From PubChem BioAssay AID1259411 (Chemical Carcinogenesis Research Information System (CCRIS), 2018)
Active and inactive are the calls of the source. How the calls were made is not given here.

Test system: rodent carcinogenicity bioassays, tumor incidence
Test: CCRIS carcinogenicity studies
Procedure, shortened: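 Archive of carcinogenicity, mutagenicity, tumor promotion and tumor inhibition results drawn from journals, NCI reports and other sources, expert-reviewed; covers 1985-2011 and is no longer updated.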

Nc1cc(S(=O)(=O)O)cc2c1C(=O)/C(=N/Nc1ccc(-c3ccc(N/N=C4/C(=O)c5c(N)cc(S(=O)(=O)O)cc5C=C4S(=O)(=O)O)cc3)cc1)C(S(=O)(=O)O)=C2
carcinogen call (Species: RAT, Strain/Sex: F344/FEMALE, Route: ORAL, Dose: 0, 190, 375, 750, 1500, 3000 PPM IN DIET FOR 91 D (STUDY DURATION: 93 D), Dose: 0, 190, 375, 750, 1500, 3000 PPM IN DIET FOR 91 D (STUDY DURATION: 93 D), Tumor Site: Type of Lesion: LIVER: HEPATOCELLULAR CARCINOMA OR NEOPLASTIC NODULE, FOCI OF CELLULAR ALTERATION OR BASOPHILIC FOCI): active; positive
carcinogen call (Species: RAT, Strain/Sex: F344/MALE, Route: ORAL, Dose: 0, 190, 375, 750, 1500, 3000 PPM IN DIET FOR 91 D (STUDY DURATION: 93 D), Dose: 0, 190, 375, 750, 1500, 3000 PPM IN DIET FOR 91 D (STUDY DURATION: 93 D), Tumor Site: Type of Lesion: LIVER: HEPATOCELLULAR CARCINOMA OR NEOPLASTIC NODULE, FOCI OF CELLULAR ALTERATION OR BASOPHILIC FOCI): active; positive

Cn1cnc([N+](=O)[O-])c1Sc1ncnc2nc[nH]c12
carcinogen call (Species: MOUSE, Strain/Sex: B6C3F1/FEMALE, Route: ORAL, Dose: 0, 5, 20 PPM IN DIET FOR 100 WK (STUDY DURATION: 100 WK), Dose: 0, 5, 20 PPM IN DIET FOR 100 WK (STUDY DURATION: 100 WK), Tumor Site: Type of Lesion: HEMATOPOIETIC SYSTEM: LYMPHOMA, UTERUS: HEMANGIODOTHELIOMA): active; positive
carcinogen call (Species: MOUSE, Strain/Sex: B6C3F1/MALE, Route: ORAL, Dose: 0, 5, 20 PPM IN DIET FOR 100 WK (STUDY DURATION: 100 WK), Dose: 0, 5, 20 PPM IN DIET FOR 100 WK (STUDY DURATION: 100 WK)): inactive; negative
carcinogen call (Species: MOUSE, Strain/Sex: SWISS/MALE,FEMALE, Route: INTRAPERITONEAL, Dose: 40 MG/KG IN NAOH-SALINE 1/D ON D 1-4 AFTER BIRTH, Tumor Site: Type of Lesion: HEMATOPOIETIC SYSTEM (LEUKEMIA)): active; positive
carcinogen call (Species: RAT, Strain/Sex: F344/MALE,FEMALE, Route: ORAL, Dose: 150 MG/KG IN DIET FOR 52 WK, Tumor Site: Type of Lesion: EAR: SQUAMOUS CELL CARCINOMA): active; positive
carcinogen call (Species: RAT, Strain/Sex: SPRAGUE-DAWLEY/FEMALE, Route: ORAL, Dose: 1.5, 2.2 G/RAT IN DIET (ESTIMATED TOTAL), Tumor Site: Type of Lesion: THYMUS GLAND: LYMPHOMA, EAR (DUCT): SQUAMOUS CELL CARCINOMA): active; positive

O=S(=O)(O)c1c(N=Nc2c(O)ccc3ccccc23)ccc2ccccc12
carcinogen call (Species: MOUSE, Strain/Sex: ICR/FEMALE, Route: DERMAL, Dose: 0, 1 MG IN 0.1 ML DISTILLED WATER 2/WK FOR A MEAN TOTAL DOSE OF 128.1 MG (STUDY DURATION: 18 MO)): inactive; negative
carcinogen call (Species: MOUSE, Strain/Sex: ICR/MALE, Route: DERMAL, Dose: 0, 1 MG IN 0.1 ML DISTILLED WATER 2/WK FOR A MEAN TOTAL DOSE OF 128.1 MG (STUDY DURATION: 18 MO)): inactive; negative

C[C@@H]1CCC[C@H](C)N1CCC[C@@](O)(c1ccccc1)c1ccccn1
carcinogen call (Species: MOUSE, Strain/Sex: B6C3F1/FEMALE, Route: ORAL, Dose: 0, 10, 25, 50 MG/KG/D IN DIET FOR 104 WK (STUDY DURATION: 104 WK), Dose: 0, 10, 25, 50 MG/KG/D IN DIET FOR 104 WK (STUDY DURATION: 104 WK)): inactive; negative
carcinogen call (Species: MOUSE, Strain/Sex: B6C3F1/MALE, Route: ORAL, Dose: 0, 10, 25, 50 MG/KG/D IN DIET FOR 104 WK (STUDY DURATION: 104 WK), Dose: 0, 10, 25, 50 MG/KG/D IN DIET FOR 104 WK (STUDY DURATION: 104 WK)): inactive; negative
carcinogen call (Species: RAT, Strain/Sex: WISTAR/FEMALE, Route: ORAL, Dose: 0, 10, 25, 50 MG/KG/D IN DIET FOR 104 WK (STUDY DURATION: 104 WK), Dose: 0, 10, 25, 50 MG/KG/D IN DIET FOR 104 WK (STUDY DURATION: 104 WK)): inactive; negative
carcinogen call (Species: RAT, Strain/Sex: WISTAR/MALE, Route: ORAL, Dose: 0, 10, 25, 50 MG/KG/D IN DIET FOR 104 WK (STUDY DURATION: 104 WK), Dose: 0, 10, 25, 50 MG/KG/D IN DIET FOR 104 WK (STUDY DURATION: 104 WK)): inactive; negative

O=c1cc[nH]c(=S)[nH]1
carcinogen call (Species: MOUSE, Route: ORAL, Tumor Site: Type of Lesion: LIVER): active; positive
carcinogen call (Species: RAT, Route: ORAL, Tumor Site: Type of Lesion: THYROID GLAND): active; positive

COc1cc2c(c3c1c(=O)c1ccccc1n3C)C=CC(C)(C)O2
carcinogen call (Species: RAT, Strain/Sex: SPRAGUE-DAWLEY/FEMALE, Route: INTRAPERITONEAL, Dose: 0, 3.75, 7.5, 15 MG/KG FOR 52 WK (STUDY DURATION: 80-82 WK), Dose: 0, 3.75, 7.5, 15 MG/KG FOR 52 WK (STUDY DURATION: 80-82 WK), Tumor Site: Type of Lesion: MAMMARY GLAND: FIBROADENOMA, PERITONEAL CAVITY: SARCOMA OR FIBROSARCOMA OR MESOTHELIOMA): active; positive
carcinogen call (Species: RAT, Strain/Sex: SPRAGUE-DAWLEY/MALE, Route: INTRAPERITONEAL, Dose: 0, 3.75, 7.5, 15 MG/KG FOR 51-52 WK (STUDY DURATION: 51-82 WK), Dose: 0, 3.75, 7.5, 15 MG/KG FOR 51-52 WK (STUDY DURATION: 51-82 WK), Tumor Site: Type of Lesion: MUSCULOSKELETAL SYSTEM: OSTEOSARCOMA, PERITONEAL CAVITY: SARCOMA OR FIBROSARCOMA OR MESOTHELIOMA): active; positive

Cc1noc(NS(=O)(=O)c2ccc(N)cc2)c1C
carcinogen call (Species: MOUSE, Strain/Sex: B6C3F1/FEMALE, Route: GAVAGE, Dose: 0, 500, 2000 MG/KG IN 0.5% AQ CMC, Dose: 0, 500, 2000 MG/KG IN 0.5% AQ CMC): inactive; negative
carcinogen call (Species: MOUSE, Strain/Sex: B6C3F1/MALE, Route: GAVAGE, Dose: 0, 500, 2000 MG/KG IN 0.5% AQ CMC, Dose: 0, 500, 2000 MG/KG IN 0.5% AQ CMC): inactive; negative
carcinogen call (Species: RAT, Strain/Sex: F344/FEMALE, Route: GAVAGE, Dose: 0, 100, 400 MG/KG IN 0.5% AQ CMC, Dose: 0, 100, 400 MG/KG IN 0.5% AQ CMC): inactive; negative
carcinogen call (Species: RAT, Strain/Sex: F344/MALE, Route: GAVAGE, Dose: 0, 100, 400 MG/KG IN 0.5% AQ CMC, Dose: 0, 100, 400 MG/KG IN 0.5% AQ CMC): inactive; negative

CCCCCCCCCc1ccc(OCCO)cc1
carcinogen call (Species: MOUSE, Strain/Sex: B6C3F1/FEMALE, Route: ORAL, Dose: 0, 500, 1500, 4500 PPM IN DIET FOR 104 WK (STUDY DURATION: 104 WK), Dose: 0, 500, 1500, 4500 PPM IN DIET FOR 104 WK (STUDY DURATION: 104 WK)): inactive; negative
carcinogen call (Species: RAT, Strain/Sex: F344/FEMALE, Route: ORAL, Dose: 0, 1000, 3000, 9000 PPM IN DIET FOR 104 WK (STUDY DURATION: 104 WK), Dose: 0, 1000, 3000, 9000 PPM IN DIET FOR 104 WK (STUDY DURATION: 104 WK)): inactive; negative
